# Earlier results in patent US20130209380A1, “MOISTURIZING COMPOSITION WITH SPF 30” (GALDERMA S.A., priority 2010, published 2013).
# System: stratum corneum
# Details: In vitro human skin model
smiles,measurement,value
"CCCCCCCCCCCCCCC[C@@H](O)[C@H](CO)NC(=O)C(O)CCCCCCCCCCCCCC (some centres unmarked) [pseudo ceramide 5, N-(2-hydroxyhexadecanoyl)sphinganine]",affinity and diffusion into the stratum corneum,good
same,effect on synthesis of ceramides 1-2-3,induction synthesis of ceramides 1-2-3
